Laboratory results published in ChEMBL document CHEMBL1132420, “Vasopeptidase inhibitors: incorporation of geminal and spirocyclic substituted azepinones in mercaptoacyl dipeptides” (J Med Chem, 1999).

What was measured:
[1] = molecular target: T1, Angiotensin-converting enzyme (Oryctolagus cuniculus, UniProt P12822); experiment: In vitro inhibitory activity against Angiotensin I converting enzyme (ACE) isolated from rabbit lung extract using hippuryl-L-histidyl-L-leucine (HHL) as the substrate
T1 sequence (P12822 whole entry): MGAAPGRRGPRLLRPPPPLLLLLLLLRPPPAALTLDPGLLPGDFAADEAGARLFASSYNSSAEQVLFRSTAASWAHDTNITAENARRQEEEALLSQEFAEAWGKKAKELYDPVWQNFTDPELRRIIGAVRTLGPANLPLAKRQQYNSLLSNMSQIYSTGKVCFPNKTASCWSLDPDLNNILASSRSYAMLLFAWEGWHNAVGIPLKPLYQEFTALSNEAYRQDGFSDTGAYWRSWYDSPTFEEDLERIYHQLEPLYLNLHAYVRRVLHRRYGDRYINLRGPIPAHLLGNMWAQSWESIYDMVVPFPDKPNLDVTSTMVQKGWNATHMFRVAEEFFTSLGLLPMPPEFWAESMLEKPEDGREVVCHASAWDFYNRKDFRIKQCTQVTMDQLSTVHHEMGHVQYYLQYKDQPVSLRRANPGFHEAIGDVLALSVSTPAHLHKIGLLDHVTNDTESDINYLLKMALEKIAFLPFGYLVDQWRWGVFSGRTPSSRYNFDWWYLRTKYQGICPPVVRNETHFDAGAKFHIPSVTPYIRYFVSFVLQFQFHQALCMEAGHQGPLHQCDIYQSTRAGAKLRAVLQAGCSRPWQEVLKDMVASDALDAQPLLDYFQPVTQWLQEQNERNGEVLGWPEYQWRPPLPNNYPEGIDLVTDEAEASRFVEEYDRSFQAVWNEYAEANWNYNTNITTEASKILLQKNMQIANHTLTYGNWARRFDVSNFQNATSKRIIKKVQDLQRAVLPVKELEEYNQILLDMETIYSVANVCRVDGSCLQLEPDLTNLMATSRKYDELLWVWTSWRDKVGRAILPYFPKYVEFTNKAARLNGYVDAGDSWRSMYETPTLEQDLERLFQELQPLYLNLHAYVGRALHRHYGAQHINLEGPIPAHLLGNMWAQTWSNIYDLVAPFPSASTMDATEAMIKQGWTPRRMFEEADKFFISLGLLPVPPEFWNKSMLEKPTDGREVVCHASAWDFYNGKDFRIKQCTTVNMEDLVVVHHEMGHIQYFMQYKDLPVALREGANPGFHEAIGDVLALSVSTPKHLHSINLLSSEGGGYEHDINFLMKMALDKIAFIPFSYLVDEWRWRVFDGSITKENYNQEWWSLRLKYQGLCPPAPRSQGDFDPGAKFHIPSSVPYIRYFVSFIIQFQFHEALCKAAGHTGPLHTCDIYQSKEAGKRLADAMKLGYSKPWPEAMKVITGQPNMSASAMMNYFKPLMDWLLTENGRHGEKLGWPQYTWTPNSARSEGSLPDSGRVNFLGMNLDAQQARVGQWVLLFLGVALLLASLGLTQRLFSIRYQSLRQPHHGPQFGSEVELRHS

Neprilysin = molecular target: T2, Neprilysin (Rattus norvegicus, UniProt P07861); experiment: In vitro inhibitory activity against purified rat kidney neutral endopeptidase (NEP) using a fluorometric assay with dansyl-Gly-Phe-Arg as the substrate
T2 sequence (P07861 whole entry): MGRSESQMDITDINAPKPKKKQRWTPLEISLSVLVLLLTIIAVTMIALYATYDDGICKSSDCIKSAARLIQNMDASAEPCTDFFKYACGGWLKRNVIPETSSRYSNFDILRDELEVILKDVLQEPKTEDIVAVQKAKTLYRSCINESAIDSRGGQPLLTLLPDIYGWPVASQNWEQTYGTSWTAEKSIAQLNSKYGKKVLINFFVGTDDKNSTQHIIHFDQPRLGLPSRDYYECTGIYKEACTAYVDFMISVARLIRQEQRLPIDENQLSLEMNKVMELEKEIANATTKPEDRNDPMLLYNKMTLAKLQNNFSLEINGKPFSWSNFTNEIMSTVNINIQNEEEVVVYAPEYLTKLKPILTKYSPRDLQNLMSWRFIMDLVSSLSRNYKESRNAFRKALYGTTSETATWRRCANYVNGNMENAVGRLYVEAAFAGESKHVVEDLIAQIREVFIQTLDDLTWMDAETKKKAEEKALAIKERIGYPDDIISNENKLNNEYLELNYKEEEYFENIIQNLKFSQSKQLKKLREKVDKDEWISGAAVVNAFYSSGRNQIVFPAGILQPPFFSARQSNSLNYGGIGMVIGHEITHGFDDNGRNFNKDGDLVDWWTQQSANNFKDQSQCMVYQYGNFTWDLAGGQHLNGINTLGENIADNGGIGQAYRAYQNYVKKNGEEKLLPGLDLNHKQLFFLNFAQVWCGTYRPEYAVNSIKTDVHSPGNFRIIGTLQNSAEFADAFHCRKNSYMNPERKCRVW

Rattus norvegicus = species on record: Rattus norvegicus; experiment: Compound is evaluated for the dose required for 50% inhibition of AI pressor response in normotensive rats; type: functional

Row | SMILES | IC50 [1] | IC50 (Neprilysin) | ED50 (Rattus norvegicus)
1 | O=C(O)CN1C(=O)[C@@H](NC(=O)[C@@H](S)Cc2ccccc2)CCCC12CCC2 | 29 nM | 641 nM | –
2 | C[C@H]1CCC[C@H](NC(=O)[C@@H](S)Cc2ccccc2)C(=O)N1CC(=O)O | 8.2 nM | – | –
3 | O=C(O)CN1C(=O)[C@@H](NC(=O)[C@@H](S)Cc2ccccc2)CCCC12CC2 | 9.6 nM | 377 nM | –
4 | O=C(O)CN1C(=O)[C@@H](NC(=O)[C@@H](S)Cc2ccccc2)CCCC12CCCC2 | 6 nM | 426 nM | –
5 | CC1(C)CCC[C@H](NC(=O)[C@@H](S)Cc2ccccc2)C(=O)N1CC(=O)O [GEMOPATRILAT] | 12 nM | 63 nM | 0.1 µmol/kg
